Assay results as given in US20090291964A1, “Potentiators of Antibacterial Activity” (priority 2003, published 2009).

Key:
[1] = test system: E. faecalis clinical isolates; assay: MIC90 studies: fluoroquinolone susceptibility of clinical isolate panel with EPI; assay type: cell-based; conditions: EPI at 50 μg/ml; for trend in the reduction of MICs for ciprofloxacin and norfloxacin: E. faecalis isolates, Table 5B
Summary of the method: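 Fluoroquinolone MICs with efflux pump inhibitor measured against panels of resistant clinical isolates by NCCLS protocols. MIC90 taken across each panel. Oxacillin and vancomycin MICs run alongside to flag methicillin-resistant S. aureus and vancomycin-resistant E. faecalis isolates.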

B. subtilis = assay: MIC of EtBr in presence and absence of EPI; assay type: cell-based; conditions: B. subtilis wild type, EPI up to 100 μg/ml, data not shown
Source text: (§1) EtBr is a general substrate for many different efflux pumps in bacteria. Markham et al., “Multiple Novel Inhibitors of the NorA Multidrug Transporter of Staphylococcus aureus”, Antimicrob. Agents Chemother. 43:2404-2408 (1999). Since EtBr is a non-specific DNA intercalator, the only known mechanism of resistance to EtBr is via efflux. Markham et al., “Multiple Novel Inhibitors of the NorA Multidrug Transporter of Staphylococcus aureus”, Antimicrob. Agents Chemother. 43:2404-2408 (1999).

[2] = test system: wild type gram negative organisms (E. coli, P. aeruginosa, and H. influenzae); assay: MIC of EtBr in presence and absence of EPI; assay type: cell-based; conditions: all wild type gram-negative organisms, compared with gram-positive
Source text: as §1

[3] = test system: permeability mutant strains of E. coli; assay: MIC of EtBr in presence and absence of EPI; assay type: cell-based
Source text: as §1

S. aureus ATCC 29213 = assay: Ethidium bromide efflux fluorescence assay; assay type: cell-based; conditions: EPIs at 4 times MEC for EtBr, A-106 at 100 μg/ml; versus control cells without EPI
Experimental: S. aureus cells were loaded with EtBr as described in Example 1. EPIs were used at 4XMEC (minimal effective concentration) (25 μg/ml reserpine; 100 μg/ml VX-710 (compound A-106 in Table A-2); 6.25 μg/ml VX-853 (compound C-9 in Table C-I), and no EPI control—as labeled). Fluorescence was continuously monitored over time at room temperature and results are an average of at least 3 replicates.
Ethidium bromide (EtBr) efflux assays with S. aureus were performed using the method described by Markham et al. (Markham, et al., “Multiple Novel Inhibitors of the NorA Multidrug Transporter of Staphylococcus aureus”, Antimicrob. Agents Chemother. 43:2404-2408 (1999)). […] Ethidium bromide efflux was determined by continuously monitoring fluorescence at an excitation wavelength of 530 nm and an emission wavelength of 600 nm in a black 96-well polystyrene plate with clear, flat bottom (Costar #3904, Cambridge, Mass.) using a SpectraMax Gemini spectrofluorimeter (Molecular Devices, Sunnydale, Calif.). […]
Markham et al., “Multiple Novel Inhibitors of the NorA Multidrug Transporter of Staphylococcus aureus”, Antimicrob. […] Since ethidium only fluoresces when it is bound to nucleic acid inside of cells, a decrease in fluorescence over time is due to active efflux. […]

[4] = alone and in combination with chemotherapeutic agents for cancer therapies; cited from earlier work
[5] = E. faecalis clinical isolate 10
[6] = E. faecalis clinical isolate 11
[7] = E. faecalis clinical isolate 12
[8] = E. faecalis clinical isolate 13
[9] = E. faecalis clinical isolate 14
[10] = E. faecalis clinical isolate 15
[11] = E. faecalis clinical isolate 16
[12] = E. faecalis clinical isolate 17
[13] = E. faecalis clinical isolate 18
[14] = E. faecalis clinical isolate 19
[15] = E. faecalis clinical isolate 20
[16] = E. faecalis clinical isolate 21
[17] = E. faecalis clinical isolate 22
[18] = E. faecalis clinical isolate 23
[19] = E. faecalis clinical isolate 24
[20] = E. faecalis clinical isolate 25
[21] = E. faecalis clinical isolate 26

In the case of `COc1cc(C(=O)C(=O)N2CCCC[C@H]2C(=O)OC(CCCc2cccnc2)CCCc2cccnc2)cc(OC)c1OC` [A-106], the “Ciprofloxacin MIC with EPI” value ([1]; E. faecalis clinical isolate 1) is reported as 0.5 µg/mL, the “Norfloxacin MIC with EPI” value ([1]; E. faecalis clinical isolate 1) is reported as 2 µg/mL and the “Ciprofloxacin MIC with EPI” value ([1]; E. faecalis clinical isolate 2) is reported as 0.5 µg/mL. The “Norfloxacin MIC with EPI” value ([1]; E. faecalis clinical isolate 2) was 1 µg/mL, the “Ciprofloxacin MIC with EPI” value ([1]; E. faecalis clinical isolate 3) was 32 µg/mL and the “Norfloxacin MIC with EPI” value ([1]; E. faecalis clinical isolate 3) was 64 µg/mL. For the same molecule, the “Ciprofloxacin MIC with EPI” value ([1]; E. faecalis clinical isolate 4) was 32 µg/mL, the “Norfloxacin MIC with EPI” value ([1]; E. faecalis clinical isolate 4) was 64 µg/mL and the “Ciprofloxacin MIC with EPI” value ([1]; E. faecalis clinical isolate 5) was 32 µg/mL. For the same molecule, the “Norfloxacin MIC with EPI” value ([1]; E. faecalis clinical isolate 5) was 64 µg/mL, the “Ciprofloxacin MIC with EPI” value ([1]; E. faecalis clinical isolate 6) was 0.5 µg/mL and the “Norfloxacin MIC with EPI” value ([1]; E. faecalis clinical isolate 6) was 1 µg/mL. The “Ciprofloxacin MIC with EPI” value ([1]; E. faecalis clinical isolate 7) was 0.5 µg/mL, the “Norfloxacin MIC with EPI” value ([1]; E. faecalis clinical isolate 7) was 1 µg/mL and the “Ciprofloxacin MIC with EPI” value ([1]; E. faecalis clinical isolate 8) was 32 µg/mL. The “Norfloxacin MIC with EPI” value ([1]; E. faecalis clinical isolate 8) was 64 µg/mL, the “Ciprofloxacin MIC with EPI” value ([1]; E. faecalis clinical isolate 9) was 1 µg/mL and the “Norfloxacin MIC with EPI” value ([1]; E. faecalis clinical isolate 9) was 2 µg/mL. For the same molecule, the “Ciprofloxacin MIC with EPI” value [1, 5] was 16 µg/mL, the “Norfloxacin MIC with EPI” value [1, 5] was 32 µg/mL and the “Ciprofloxacin MIC with EPI” value [1, 6] was 16 µg/mL. For the same molecule, the “Norfloxacin MIC with EPI” value [1, 6] was 64 µg/mL, the “Ciprofloxacin MIC with EPI” value [1, 7] was 0.5 µg/mL and the “Norfloxacin MIC with EPI” value [1, 7] was 1 µg/mL. For the same molecule, the “Ciprofloxacin MIC with EPI” value [1, 8] was 0.5 µg/mL, the “Norfloxacin MIC with EPI” value [1, 8] was 1 µg/mL and the “Ciprofloxacin MIC with EPI” value [1, 9] was 0.25 µg/mL. The “Norfloxacin MIC with EPI” value [1, 9] was 0.5 µg/mL, the “Ciprofloxacin MIC with EPI” value [1, 10] was 1 µg/mL and the “Norfloxacin MIC with EPI” value [1, 10] was 2 µg/mL. For the same molecule, the “Ciprofloxacin MIC with EPI” value [1, 11] was 1 µg/mL, the “Norfloxacin MIC with EPI” value [1, 11] was 2 µg/mL and the “Ciprofloxacin MIC with EPI” value [1, 12] was 0.5 µg/mL. For the same molecule, the “Norfloxacin MIC with EPI” value [1, 12] was 2 µg/mL, the “Ciprofloxacin MIC with EPI” value [1, 13] was 32 µg/mL and the “Norfloxacin MIC with EPI” value [1, 13] was 64 µg/mL. The “Ciprofloxacin MIC with EPI” value [1, 14] was 1 µg/mL, the “Norfloxacin MIC with EPI” value [1, 14] was 2 µg/mL and the “Ciprofloxacin MIC with EPI” value [1, 15] was 0.5 µg/mL. The “Norfloxacin MIC with EPI” value [1, 15] was 2 µg/mL, the “Ciprofloxacin MIC with EPI” value [1, 16] was 0.5 µg/mL and the “Norfloxacin MIC with EPI” value [1, 16] was 1 µg/mL. The “Ciprofloxacin MIC with EPI” value [1, 17] was 32 µg/mL, the “Norfloxacin MIC with EPI” value [1, 17] was 64 µg/mL and the “Ciprofloxacin MIC with EPI” value [1, 18] was 32 µg/mL. For the same molecule, the “Norfloxacin MIC with EPI” value [1, 18] was 32 µg/mL, the “Ciprofloxacin MIC with EPI” value [1, 19] was 16 µg/mL and the “Norfloxacin MIC with EPI” value [1, 19] was 32 µg/mL. For the same molecule, the “Ciprofloxacin MIC with EPI” value [1, 20] was 32 µg/mL, the “Norfloxacin MIC with EPI” value [1, 20] was 64 µg/mL and the “Ciprofloxacin MIC with EPI” value [1, 21] was 32 µg/mL. The “Norfloxacin MIC with EPI” value [1, 21] was 64 µg/mL, the “trend in the reduction of MICs for ciprofloxacin and norfloxacin” value [1] was “two-fold trend in the reduction of MICs” and the “reduction of the MIC of EtBr” value (B. subtilis) was 8 fold. For the same molecule, the “activity against efflux of EtBr” value [2] was “much less active”, the efflux inhibitory activity [3] was “some efflux inhibitory activity was observed” and the “loss of EtBr fluorescence over time (FIG. 1)” value (S. aureus ATCC 29213) was “much more gradual loss of fluorescence”. The “adverse events in clinical studies” value [4] was “only mild adverse events”.
In the case of `COc1cc(C(=O)C(=O)N(C)[C@@H](Cc2ccc(Cl)cc2)C(=O)N(Cc2ccccc2)C(CCc2ccncc2)CCc2ccncc2)cc(OC)c1OC` [C-9, (S)—N-Benzyl-2-(methyl-(2-oxo-2-(3,4,5-trimethoxyphenyl)acetyl)amino)-3-(4-chloro-phenyl)-N-(3-pyridin-4-yl-1-(2-pyridin-4-yl-ethyl)propyl)propionamide], the “Ciprofloxacin MIC with EPI” value ([1]; E. faecalis clinical isolate 1) is reported as 1 µg/mL, the “Norfloxacin MIC with EPI” value ([1]; E. faecalis clinical isolate 1) is reported as 2 µg/mL and the “Ciprofloxacin MIC with EPI” value ([1]; E. faecalis clinical isolate 2) is reported as 1 µg/mL. For the same molecule, the “Norfloxacin MIC with EPI” value ([1]; E. faecalis clinical isolate 2) was 2 µg/mL, the “Ciprofloxacin MIC with EPI” value ([1]; E. faecalis clinical isolate 3) was 64 µg/mL and the “Norfloxacin MIC with EPI” value ([1]; E. faecalis clinical isolate 3) was 128 µg/mL. For the same molecule, the “Ciprofloxacin MIC with EPI” value ([1]; E. faecalis clinical isolate 4) was 64 µg/mL, the “Norfloxacin MIC with EPI” value ([1]; E. faecalis clinical isolate 4) was 128 µg/mL and the “Ciprofloxacin MIC with EPI” value ([1]; E. faecalis clinical isolate 5) was 64 µg/mL. For the same molecule, the “Norfloxacin MIC with EPI” value ([1]; E. faecalis clinical isolate 5) was 64 µg/mL, the “Ciprofloxacin MIC with EPI” value ([1]; E. faecalis clinical isolate 6) was 1 µg/mL and the “Norfloxacin MIC with EPI” value ([1]; E. faecalis clinical isolate 6) was 8 µg/mL. The “Ciprofloxacin MIC with EPI” value ([1]; E. faecalis clinical isolate 7) was 1 µg/mL, the “Norfloxacin MIC with EPI” value ([1]; E. faecalis clinical isolate 7) was 2 µg/mL and the “Ciprofloxacin MIC with EPI” value ([1]; E. faecalis clinical isolate 8) was 32 µg/mL. For the same molecule, the “Norfloxacin MIC with EPI” value ([1]; E. faecalis clinical isolate 8) was 128 µg/mL, the “Ciprofloxacin MIC with EPI” value ([1]; E. faecalis clinical isolate 9) was 1 µg/mL and the “Norfloxacin MIC with EPI” value ([1]; E. faecalis clinical isolate 9) was 2 µg/mL. The “Ciprofloxacin MIC with EPI” value [1, 5] was 64 µg/mL, the “Norfloxacin MIC with EPI” value [1, 5] was 64 µg/mL and the “Ciprofloxacin MIC with EPI” value [1, 6] was 32 µg/mL. The “Norfloxacin MIC with EPI” value [1, 6] was 64 µg/mL, the “Ciprofloxacin MIC with EPI” value [1, 7] was 1 µg/mL and the “Norfloxacin MIC with EPI” value [1, 7] was 2 µg/mL. For the same molecule, the “Ciprofloxacin MIC with EPI” value [1, 8] was 0.5 µg/mL, the “Norfloxacin MIC with EPI” value [1, 8] was 2 µg/mL and the “Ciprofloxacin MIC with EPI” value [1, 9] was 0.5 µg/mL. The “Norfloxacin MIC with EPI” value [1, 9] was 2 µg/mL, the “Ciprofloxacin MIC with EPI” value [1, 10] was 2 µg/mL and the “Norfloxacin MIC with EPI” value [1, 10] was 4 µg/mL. The “Ciprofloxacin MIC with EPI” value [1, 11] was 1 µg/mL, the “Norfloxacin MIC with EPI” value [1, 11] was 4 µg/mL and the “Ciprofloxacin MIC with EPI” value [1, 12] was 1 µg/mL. The “Norfloxacin MIC with EPI” value [1, 12] was 2 µg/mL, the “Ciprofloxacin MIC with EPI” value [1, 13] was 64 µg/mL and the “Norfloxacin MIC with EPI” value [1, 13] was 128 µg/mL. For the same molecule, the “Ciprofloxacin MIC with EPI” value [1, 14] was 1 µg/mL, the “Norfloxacin MIC with EPI” value [1, 14] was 4 µg/mL and the “Ciprofloxacin MIC with EPI” value [1, 15] was 1 µg/mL. The “Norfloxacin MIC with EPI” value [1, 15] was 2 µg/mL, the “Ciprofloxacin MIC with EPI” value [1, 16] was 1 µg/mL and the “Norfloxacin MIC with EPI” value [1, 16] was 4 µg/mL. For the same molecule, the “Ciprofloxacin MIC with EPI” value [1, 17] was 64 µg/mL, the “Norfloxacin MIC with EPI” value [1, 17] was 128 µg/mL and the “Ciprofloxacin MIC with EPI” value [1, 18] was 32 µg/mL. The “Norfloxacin MIC with EPI” value [1, 18] was 64 µg/mL, the “Ciprofloxacin MIC with EPI” value [1, 19] was 32 µg/mL and the “Norfloxacin MIC with EPI” value [1, 19] was 64 µg/mL. The “Ciprofloxacin MIC with EPI” value [1, 20] was 64 µg/mL, the “Norfloxacin MIC with EPI” value [1, 20] was 128 µg/mL and the “Ciprofloxacin MIC with EPI” value [1, 21] was 64 µg/mL. The “Norfloxacin MIC with EPI” value [1, 21] was 128 µg/mL, the “trend in the reduction of MICs for ciprofloxacin and norfloxacin” value [1] was “less apparent” and the “reduction of the MIC of EtBr” value (B. subtilis) was 8 fold. For the same molecule, the “activity against efflux of EtBr” value [2] was “much less active”, the efflux inhibitory activity [3] was “some efflux inhibitory activity was observed” and the “loss of EtBr fluorescence over time (FIG. 1)” value (S. aureus ATCC 29213) was “much more gradual loss of fluorescence”.
